Results as given in patent US20240041838A1, “METHODS AND COMPOSITIONS FOR INHIBITION OF NEUTROPHIL RECRUITMENT IN MYCOCARDIAL ISCHEMIA-REPERFUSION INJURY” (University of Connecticut, priority 2022, published 2024).

Key:
human neutrophils = test: microfluidic perfusion assay: neutrophil rolling and arrest on P-selectin/ICAM-1 with IL-8; assay type: cell-based; settings: 10 μM
Procedure: The assembly of the microfluidic devices used in this study and the coating of coverslips with recombinant human P-selectin-Fc and ICAM-1-Fc with or without IL-8 have been described previously. Briefly, coverslips were coated with P-selectin-Fc (2 μg·ml^−1) and ICAM-1-Fc (10 μg·ml^−1) without or with IL-8 (10 μg·ml^−1) for two hours and then blocked for one hour with casein (1%) at RT. After coating, coverslips were sealed with polydimethylsiloxane chips by magnetic clamps to create flow chamber channels ˜29 μm high and ˜300 μm across. By modulating the pressure between the inlet well and the outlet reservoir, 6 dyn·cm^−2 wall shear stress was applied in all experiments.
To study the rolling and arrest of neutrophils, isolated human neutrophils (5×10^6 cells·ml^−1) were perfused in the microfluidic device over a substrate of recombinant human P-selectin-Fc and recombinant human ICAM-1-Fc with or without IL-8 under a shear stress of 6 dyn·cm^−2. […] Time-lapse images (one frame per second) were taken by an IX71 inverted research microscope (Olympus America) with a 40× NA 0.9 air objective during the perfusion to quantify rolling velocity. The quantification was done using the “Manual tracking” plugin in FIJI-ImageJ v2.0. Cell tracks (FIG. 1A) and rolling velocity were obtained (FIGS. 1B, 2C). After perfusion with neutrophils for 10 minutes, the microfluidic device was washed with RPMI-1640 without phenol red plus 2% HSA for 5 minutes. Then, the arrested neutrophils were counted in nine fields-of-view per group (FIG. 1D).

[1] = test system: LPS-induced systemic inflammation / acute lung injury; settings: reported, cited from earlier work
[2] = test system: mouse myocardial I/R injury; test: infarct size (TTC-phthalo-blue staining) and left ventricle echocardiogram in mouse myocardial I/R injury; assay type: in vivo
Procedure: Mice were subjected to 35 minutes of myocardial ischemia and 1 (for multi-photon microscopy and flow cytometry) or 22-26 (for TTC-phthalo-blue staining) hours of reperfusion. […] Briefly, anesthesia was induced with an intraperitoneal injection of ketamine hydrochloride (125 mg·kg^−1) and xylazine (12.5 mg·kg^−1). Mice were intubated with 24G×3/4″ Surflo i.v. catheter and ventilated using MiniVent 845 (Harvard Apparatus).
Surgeries were performed under an SMZ168 Stereo Zoom microscope (Motic). Ischemia was achieved by ligating the left anterior descending coronary artery (LAD) using a 6-0 silk suture with a section of PE-10 tubing placed over the LAD, 1 mm from the tip of the normally positioned left atrium. One important problem in drug administration is water solubility, which greatly affects drug absorption and bioavailability. […] In clinics, the primary percutaneous coronary intervention aims to be performed less than 90 min (within 60 min is preferable) after the patient arrives. […] After occlusion for 35 minutes, reperfusion was initiated by releasing the ligature and removing the PE-10 tubing. The chest wall was closed, the animal extubated, and body temperature was maintained by use of a 37° C. warm pad. Hearts were harvested 1 or 22-26 hours later. The loosened suture was left in place and then retied for the purpose of evaluating the ischemic area. […]
To assess the ischemic area at risk after 22-26 hours of reperfusion, hearts were excised, infused with PBS and freshly prepared 10% phthalo-blue (PBS with 0.75% tween 20) through the aorta and coronary arteries in a retrograde fashion, frozen at −20° C. for 10 minutes, and sliced into five to six 1 mm cross-sections with the aid of a pre-freeze acrylic matrix (ZIVIC Labs). […] The infarct area (white), the area at risk (red and white), and the total left ventricle area from each section were measured using ZEN v3.1 (Zeiss). Ratios of infarct area/area at risk (FIG. 5B) and of area at risk/left ventricle (FIG. 5C) were calculated and expressed as percentages.
To quantify left ventricle function, we performed echocardiograms on mice before and seven days after myocardial I/R injury. […] Echocardiography loops were recorded in B and two-dimensional-targeted M modes in longitudinal and short-axis views on a Vevo 3100 High-Resolution Imaging System equipped with an MX550D transducer (VisualSonics, Toronto, ON, Canada). Mice were fixed on a heated table and heart rate was monitored during the procedure. […] Left ventricular ejection fraction was determined by left ventricle tracing relating the end-systolic left ventricle area as the minimal left ventricle cross-sectional area to the end-diastolic left ventricle area as the maximum left ventricle cross-sectional area in long-axis views. […]

neutrophils = settings: reported; cited from earlier work

## CC(C)(C)C(=O)/C(=C\c1cccc([N+](=O)[O-])c1)n1cncn1 [Nexinhib20, 4,4-dimethyl-1-(3-nitrophenyl)-2-(1H-1,2,4-triazol-1-yl)-1-penten-3-one]
Human neutrophils; RT 1 hour
  effect of IL-8 on rolling velocity of treated neutrophils: did not slow down
Human neutrophils; RT 1 hour before perfusion
  neutrophil arrest on IL-8 substrate: failed to arrest
Human neutrophils; RT 1 hour, P-selectin/ICAM-1/IL-8, 6 dyn·cm^−2
  decrease of number of arrested neutrophils: about 90%
Human neutrophils; RT 1 hour, P-selectin/ICAM-1/IL-8, 6 dyn·cm^−2, vehicle about 200
  number of arrested neutrophils: about 20 cells per field-of-view
[1]; LPS-induced systemic inflammation model
  recruitment of neutrophils to the liver and kidney: inhibit recruitment of neutrophils
[1]; acute LPS-induced lung injury mouse model
  recruitment of neutrophils to lung lumen and parenchyma: inhibit recruitment of neutrophils
[2]; I/R 35 min/24 hours, i.p. 30 minutes before reperfusion, vehicle about 50%
  infarct area percentage (infarct area/area at risk): about 40%
[2]; echocardiogram before and 7 days after I/R, vehicle reduced by about 25%
  change of ejection fraction after myocardial I/R injury: no significant reduction
[2]; echocardiogram before and 7 days after I/R, vehicle reduced by about 30%
  change of fractional shortening after myocardial I/R injury: no significant reduction
[2]; mouse myocardial I/R injury
  reduction of infarct size: about 20%
neutrophils
  inhibition of neutrophil extracellular superoxide anion production: about 50%
